The target in one data set is BTK enzyme (Homo sapiens, UniProt Q06187). To be noted: healthy volunteers; doses which provide 100% occupancy of the BTK enzyme; cited from earlier work.
The subject of data set [1] is washed platelets. Nature of the data set: Light transmission aggregometry, aggregation to collagen. The note with it: 3 μg/mL collagen; results not shown. The class given is cell-based, human. The protocol: […] Modified-Tyrode's-HEPES buffer or dimethyl sulfoxide (DMSO) was used as vehicle.
We tested if the Btk inhibitor rilzabrutinib (rilzabrutinib powder prepared in DMSO (final 0.02% DMSO) to achieve a concentration of 0.5 μM) could prevent platelet aggregation in patient sera.

In data set [2] the test system is washed platelets. Nature of the data set: Light transmission aggregometry of washed platelets stimulated with serum from patients with VITT. In kind it is cell-based, human. The protocol: Washed platelets were prepared from citrated whole blood as described in Nicolson et al., Low-dose BTK inhibitors selectively block platelet activation by CLEC-2, Haematologica 106(1):208-19 (2021). Briefly; citrated blood was taken from healthy, drug-free volunteers and mixed (1:10, v/v) with acid citrate dextrose and centrifuged (200×g, 20 minutes, RT) to produce platelet rich plasma. Platelet rich plasma was then centrifuged (1000×g, 10 minutes, RT) in the presence of 0.2 μg/mL prostacyclin. The platelet pellet was resuspended in modified-Tyrode's-HEPES buffer, prepared as described in Nicolson et al., acid citrate dextrose and 0.2 μg/mL prostacyclin and centrifuged (1000×g, 10 minutes, RT). Platelet pellet was resuspended in modified-Tyrode's-HEPES buffer to a concentration of 2×10^8/mL and allowed to rest for 30 minutes prior to use.
Aggregation was measured in washed platelets (2×10^8/mL) under stirring conditions (1200 rpm) at 37° C. using a light transmission aggregometer (Model 700, ChronoLog) for 20 minutes following stimulation with serum (1:15, v/v). Washed platelets were pre-incubated with IV.3 F(ab) for 5 minutes or with inhibitors for 10 minutes prior to stimulation with serum. Modified-Tyrode's-HEPES buffer or dimethyl sulfoxide (DMSO) was used as vehicle.

Data set [3] in a line: Bleeding in thrombocytopenic patients. The class given is in vivo, human.
A further data set concerns 251-kinase panel. Nature of the data set: 251-kinase panel selectivity. In kind it is biochemical. To be noted: 1 μM.
For data set [4] the following is noted: in comparison to first and second generation BTKi; cited from earlier work.
Data set [5] is described as follows: Pharmacokinetics in humans after oral administration. In kind it is in vivo, human.
For data set [6], the system named is platelets. Nature of the data set: Normal platelet function in vitro. In kind it is cell-based.
For data set [7] the following is noted: Phase 2 trial; cited from earlier work.
The subject of data set [8] is platelets. The experiment in a line: Heparin Induced Platelet Activation (HIPA) assay (HITAlert kit). The class given is cell-based, human. From the text: See, e.g., Greinacher et al., Thrombotic thrombocytopenia after ChAdOx1 nCov-19 vaccination, N Engl J Med, doi:10.1056/NEJMoa2104840 (2021); Schlutz et al., Thrombosis and thrombocytopenia after ChAdox1 nCoV-19 vaccination, N Engl J Med, doi:10.1056/NEJMoa2104882 (2021). Cross-sectional brain imaging verified the presence of cerebral venous sinus thrombosis (CVST) and intracerebral haemorrhage in three patients, and ischemic stroke caused by internal carotid artery thrombus in one patient.

A further data set deals with platelets via FcγRIIA. To be noted: both low and high concentrations of heparin; cited from earlier work.
For data set [9] the following is noted: human, in vivo; cited from earlier work.
The mark [10] stands for this setting: HITAlert at presentation, serum of the individual VITT patient, normal range ≤ 8%.

These results are taken from patent US20240207277A1, “Methods For Treating Drug and Vaccine Induced Immune Thrombocytopenia by Administering Specific Compounds” (Principia Biopharma Inc., priority 2021, published 2024).

Values joined by “and” are separate entries in the source; they are usually repeats but may differ in a detail not shown here. Identical values can stand only once. “Also recorded” adds a separate entry of the source. Where a SMILES comes first, the peptide text is derived from it. Bridges are numbered along the chain shown (N, C = ends). [ ]: non-standard residue; d: D form. hArg = N=C(N)NCCCC[C@H](N)C(=O)O; Mpa = O=C(O)CCS

BTK enzyme, sequence (Q06187 whole entry): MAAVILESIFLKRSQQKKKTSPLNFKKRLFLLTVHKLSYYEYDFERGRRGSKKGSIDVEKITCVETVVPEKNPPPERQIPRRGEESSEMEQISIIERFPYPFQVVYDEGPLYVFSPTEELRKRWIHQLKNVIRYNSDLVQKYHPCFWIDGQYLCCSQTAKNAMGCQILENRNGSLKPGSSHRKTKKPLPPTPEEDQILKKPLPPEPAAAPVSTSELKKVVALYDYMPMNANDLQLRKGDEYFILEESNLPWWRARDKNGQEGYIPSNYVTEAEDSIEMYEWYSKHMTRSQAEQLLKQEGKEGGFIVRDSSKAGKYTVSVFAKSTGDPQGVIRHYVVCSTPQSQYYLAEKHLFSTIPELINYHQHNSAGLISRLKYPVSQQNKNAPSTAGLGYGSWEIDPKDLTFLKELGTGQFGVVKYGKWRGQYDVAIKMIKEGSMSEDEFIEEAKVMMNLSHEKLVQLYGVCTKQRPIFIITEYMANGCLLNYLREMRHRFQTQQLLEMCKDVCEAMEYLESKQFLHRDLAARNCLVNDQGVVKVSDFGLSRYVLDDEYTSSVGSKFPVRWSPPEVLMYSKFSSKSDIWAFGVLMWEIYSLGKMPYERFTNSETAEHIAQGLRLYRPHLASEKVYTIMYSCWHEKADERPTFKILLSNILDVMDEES

Consider `C=CC(=O)Nc1cccc(Nc2nc(Nc3ccc(OCCOC)cc3)ncc2F)c1` [CC-292, spebrutinib], for which the tolerability entry on BTK enzyme was “well tolerated”.

Take `CC(C)(C=C(C#N)C(=O)N1CCC[C@@H](n2nc(-c3ccc(Oc4ccccc4)cc3F)c3c(N)ncnc32)C1)N1CCN(C2COC2)CC1` [Compound (I), (R)-2-[3-[4-amino-3-(2-fluoro-4-phenoxy-phenyl)pyrazolo[3,4-d]pyrimidin-1-yl]piperidine-1-carbonyl]-4-methyl-4-[4-(oxetan-3-yl)piperazin-1-yl]pent-2-enenitrile]: the aggregation to collagen result with washed platelets [1] was “fully inhibited”. Besides, the “platelet aggregation induced by serum from patients with VITT” value in the data set on washed platelets [2] (rilzabrutinib 0.5 μM, 10 minutes pre-incubation, washed platelets 2×10^8/mL, serum 1:15 v/v, n=7) is on record as “prevented platelet aggregation; also recorded: blocks platelet aggregation”. In addition, the association with bleeding result in data set [3] is recorded as “has not been associated with bleeding”. Further, the “number of kinases with >90% inhibition” value with 251-kinase panel is 6 kinases. In addition, in [4], the “cross-reactivity with other molecules” value is “minimal cross-reactivity”. For the same molecule, in data set [5], the absorption result is on record as “rapidly absorbed”. Moreover, the half-life (as a rule, how long it takes for the measured level to halve) in data set [5] (human, in vivo) lay within 180 to 240 min. Further, in the data set with platelets [6], the “impact on normal platelet function” value was “no impact”.

`N=C(N)c1ccc2cc(OC(=O)c3ccc(N=C(N)N)cc3)ccc2c1` [FUT-175]: in the data set with washed platelets [2] (data not shown), the “effect on aggregation to patient sera (complement inhibitors)” value is reported as “minor effects”.

For the molecule `CC[C@H](C)[C@H](N)C(=O)N[C@H]1CSSC[C@@H](C(=O)N[C@H](C(N)=O)[C@@H](C)O)NC(=O)[C@H](CCCN=C(N)N)NC(=O)[C@H](Cc2cnc[nH]2)NC(=O)[C@H](Cc2cnc[nH]2)NC(=O)CNC(=O)[C@H](Cc2c[nH]c3ccccc23)NC(=O)[C@H](CC(=O)O)NC(=O)[C@H](CCC(N)=O)NC(=O)[C@H](C(C)C)NC(=O)[C@H](C(C)C)NC1=O` [compstatin], in the data set with washed platelets [2] (data not shown), the “effect on aggregation to patient sera (complement inhibitors)” value was “minor effects”.

For `N=C(N)NCCCC[C@@H]1NC(=O)CCSSC[C@@H](C(N)=O)NC(=O)[C@@H]2CCCN2C(=O)[C@H](Cc2c[nH]c3ccccc23)NC(=O)[C@H](CC(=O)O)NC(=O)CNC1=O` [eptifibatide] ([Mpa][hArg]GDWPC-NH2; disulfide 1-7), in the data set on washed platelets [2] (eptifibatide 9 μM, data not shown), the “response (aggregation) to patient sera” value was “inhibited”.

On to `C=CC(=O)N1CCC(CNc2ncnc(N)c2-c2ccc(Oc3ccccc3)cc2)CC1` [evobrutinib], for which the “efficacy for multiple sclerosis” value in data set [7] is listed as “demonstrated efficacy”.

heparin: in the data set on platelets [8] (setting [10]), the “Platelet activation with serum and excess heparin” value is 0.64% and 3.68% and 1.43% and 4.38%; the “Platelet activation with serum and heparin” value is 18.53% and 18% and 36.5% and 22.63%. Besides, in the data set with platelets [8] (sera of four patients tested), the “platelet activation by patient sera, high concentration of heparin” value was “blocked” and the “platelet activation by patient sera, low concentration of heparin” value is on record as “reduced”. In addition, the “platelet activation by immune complexes” value in the data set with platelets via FcγRIIA was “blocked”. The “deleterious effect in 1 patient with VITT” value in [9] is listed as “without deleterious effect”. For the same molecule, the “aggregation to VITT patient sera, high heparin” value in the data set on washed platelets [2] (high heparin concentration (100 U/mL)) is reported as “blocked aggregation”. Also, in the data set with washed platelets [2] (low (0.2 U/mL) concentration of heparin, 7 patients), the “aggregation to VITT patient sera, low heparin” value is on record as “prevented (5 of 7 patients) or delayed (2 of 7 patients)”.

B1: PF4: platelet factor 4 (protein, UniProt P02776 32-101, looked up)
Platelet factor 4: EAEEDGDLQCLCVKTTSQVRPRHITSLEVIKAGPHCPTAQLIATLKNGRKICLDLQAPLYKKIIKKLLES
Turning to B1, the “enhancement of partial aggregation to patient 2 serum” value with washed platelets [2] (10 μg/mL PF4, data not shown) is reported as “No enhancement”.
